This note sets out measurements from ChEMBL document CHEMBL3046649, “Fungitoxic and Phytotoxic Activities of Cinnamic Acid Esters and Amides” (2000).

For assay [1], the system named is Brassica rapa subsp. chinensis. The assay is described as follows: whole plant or invertebrate. The assay is classed as functional. To be noted: 72 h, read-out: GI.
Description: Phytotoxicity against Brassica rapa subsp. chinensis assessed as growth inhibition of hypocotyl at 100 ppm treated to seeds after 3 days
In assay [2] the test system is Brassica rapa subsp. chinensis. The assay can be described thus: whole plant or invertebrate. The assay is classed as functional. To be noted: 72 h, read-out: GI. This is another data set of the same source.
Description: Phytotoxicity against Brassica rapa subsp. chinensis assessed as growth inhibition of radicle at 100 ppm treated to seeds after 3 days
Assay [3] has as its system Pythium. The assay can be described thus: microbe, parasite or virus in culture. The assay is classed as functional. To be noted: read-out: GI.
Description: Fungitoxic activity against Pythium sp. assessed as mycelial growth inhibition at 100 ppm after 4 to 5 days by agar dilution method
In assay [4] the test system is Athelia rolfsii. The assay is described as follows: microbe, parasite or virus in culture. The assay is classed as functional. To be noted: Agroathelia rolfsii, read-out: GI.
Description: Fungitoxic activity against Athelia rolfsii assessed as mycelial growth inhibition at 100 ppm after 4 to 5 days by agar dilution method
For assay [5], the system named is Athelia rolfsii. The assay can be described thus: Fungitoxic activity against Athelia rolfsii assessed as mycelial growth inhibition at 10 ppm after 4 to 5 days by agar dilution method. Format: functional. The conditions noted are these: Agroathelia rolfsii; read-out: GI.
Assay [6] concerns Pythium. The assay can be described thus: Fungitoxic activity against Pythium sp. assessed as mycelial growth inhibition at 10 ppm after 4 to 5 days by agar dilution method. The conditions noted are these: read-out: GI. In general terms: In agar dilution, organisms are placed on agar that contains the substance at set levels.

Consider `Cc1cccc(C)c1NC(=O)/C=C/c1ccccc1`, for which the inhibition of growth at 100 ppm in assay [1] amounted to 0%; in assay [2], 0%; in the assay with Pythium [3], 31%; with Athelia rolfsii [4] it was 13%.

For `CCc1ccccc1NC(=O)/C=C/c1ccccc1`, the inhibition of growth at 100 ppm in assay [1] was found to be 0%; in assay [2] it was 21%; in the assay on Pythium [3], 26%; in the assay with Athelia rolfsii [4], 19%.

On to `Cc1ccc(NC(=O)/C=C/c2ccccc2)c(C)c1`, for which the inhibition of growth at 100 ppm in assay [1] was 0%; in assay [2], 0%; in the assay with Pythium [3], 4%; in the assay on Athelia rolfsii [4], 5%.

Consider `Cc1cccc(NC(=O)/C=C/c2ccccc2)c1C`, for which the inhibition of growth at 100 ppm was 32% in assay [1], 56% in assay [2], 16% in the assay on Pythium [3] and 12% in the assay on Athelia rolfsii [4].

With `CC(C)=CCC/C(C)=C/COC(=O)/C=C/c1ccc(Cl)cc1Cl`, the inhibition of growth at 100 ppm in assay [1] turned out to be 26%; in assay [2], 1%; in the assay with Pythium [3], 24%; with Athelia rolfsii [4], 30%.

For `CCCCCCCCCCNC(=O)/C=C/c1ccccc1`, the inhibition of growth at 100 ppm in assay [1] was 10%; in assay [2] it was 15%; with Pythium [3], 27%; with Athelia rolfsii [4], 23%.

Take `CCc1ccc(NC(=O)/C=C/c2ccccc2)cc1`: the inhibition of growth at 100 ppm in assay [1] came out at 10%; in assay [2], 20%; with Pythium [3] it was 34%; in the assay with Athelia rolfsii [4], 53%.

On to `Cc1ccc(OC(=O)/C=C/c2ccc(Cl)cc2)c(C(C)C)c1`, for which the inhibition of growth at 100 ppm was 41% in assay [1], 18% in assay [2], 13% in the assay on Pythium [3] and 41% in the assay with Athelia rolfsii [4].

For `Cc1ccc(C(C)C)c(OC(=O)/C=C/c2ccc(Cl)cc2)c1`, the inhibition of growth at 100 ppm in assay [1] came to 36%; in assay [2], 24%; in the assay on Pythium [3] it was 6%; in the assay on Athelia rolfsii [4], 39%.

`Cc1ccc(OC(=O)/C=C/c2ccc(Cl)cc2Cl)c(C(C)C)c1`: the inhibition of growth at 100 ppm in assay [1] turned out to be 32%; in assay [2], 0%; with Pythium [3] it was 15%; in the assay on Athelia rolfsii [4] it was 67%. In addition, the inhibition of growth at 10 ppm in the assay on Athelia rolfsii [5] was 21%.

Turning to `Cc1ccc(C(C)C)c(OC(=O)/C=C/c2ccc(Cl)cc2Cl)c1`, the inhibition of growth at 100 ppm in assay [1] was determined as 33%; in assay [2], 0%; with Pythium [3], 29%; with Athelia rolfsii [4], 33%.

Consider `Cc1ccc(OC(=O)/C=C/c2ccc(C(C)C)cc2)c(C(C)C)c1`, for which the inhibition of growth at 100 ppm in assay [1] was 39%; in assay [2] it was 28%; with Pythium [3], 15%; with Athelia rolfsii [4], 24%.

As to `Cc1ccc(C(C)C)c(OC(=O)/C=C/c2ccc(C(C)C)cc2)c1`, the inhibition of growth at 100 ppm in assay [1] worked out at 42%; in assay [2], 30%; with Pythium [3], 2%; in the assay with Athelia rolfsii [4], 0%.

As for `CC(C)=CCCC(C)CCOC(=O)/C=C/c1ccc(Cl)cc1Cl` (stereo unspecified) [3,7-DIMETHYLOCT-6-ENYL 3-(2,4-DICHLOROPHENYL)ACRYLATE], the inhibition of growth at 100 ppm in assay [1] is 25%; in assay [2], 0%; with Pythium [3], 0%; in the assay with Athelia rolfsii [4] it was 15%.

With `CC(C)CNC(=O)/C=C/c1ccc(Cl)cc1Cl` [3-(2,4-DICHLOROPHENYL)-N-ISOBUTYLACRYLAMIDE], the inhibition of growth at 100 ppm amounted to 7% in assay [1], 43% in assay [2], 31% with Pythium [3] and 38% with Athelia rolfsii [4].

As for `CC(C)NC(=O)/C=C/c1ccc(Cl)cc1Cl` [3-(2,4-DICHLOROPHENYL)-N-ISOPROPYLACRYLAMIDE], the inhibition of growth at 100 ppm in assay [1] was determined as 11%; in assay [2], 30%; in the assay on Pythium [3], 28%; in the assay with Athelia rolfsii [4] it was 31%.

With `CCCNC(=O)/C=C/c1ccc(Cl)cc1Cl` [3-(2,4-DICHLOROPHENYL)-N-PROPYLACRYLAMIDE], the inhibition of growth at 100 ppm in assay [1] turned out to be 18%; in assay [2], 26%; in the assay with Pythium [3] it was 29%; in the assay on Athelia rolfsii [4] it was 43%.

For `CCCCOC(=O)/C=C/c1ccccc1` [BUTYL CINNAMATE], the inhibition of growth at 100 ppm turned out to be 5% in assay [1], 0% in assay [2], 17% in the assay on Pythium [3] and 42% in the assay with Athelia rolfsii [4].

Consider `CC(C)OP(=O)(OC(C)C)SCc1ccccc1` [IPROBENFOS], for which the inhibition of growth at 100 ppm was determined as 89% in the assay on Pythium [3] and 100% in the assay with Athelia rolfsii [4]. In addition, the inhibition of growth at 10 ppm turned out to be 69% in the assay with Athelia rolfsii [5] and 42% in the assay with Pythium [6].

As to `CC(C)COC(=O)/C=C/c1ccccc1` [ISOBUTYL CINNAMATE], the inhibition of growth at 100 ppm worked out at 40% in assay [1], 0% in assay [2], 57% in the assay on Pythium [3] and 42% in the assay on Athelia rolfsii [4].

In the case of `O=C(/C=C/c1ccccc1)NCc1ccc(Cl)cc1Cl` [N-(2,4-DICHLOROBENZYL)CINNAMAMIDE], the inhibition of growth at 100 ppm in assay [1] amounted to 0%; in assay [2], 43%; in the assay with Pythium [3], 41%; with Athelia rolfsii [4], 51%.

Turning to `O=C(/C=C/c1ccccc1)NCc1ccccc1Cl` [N-(2-CHLOROBENZYL)CINNAMAMIDE], the inhibition of growth at 100 ppm in assay [1] stood at 70%; in assay [2], 88%; in the assay with Pythium [3], 23%; with Athelia rolfsii [4], 41%.

As to `O=C(/C=C/c1ccccc1)NCc1ccc(Cl)cc1` [N-(4-CHLOROBENZYL)CINNAMAMIDE], the inhibition of growth at 100 ppm in assay [1] was 6%; in assay [2] it was 44%; in the assay on Pythium [3], 33%; with Athelia rolfsii [4], 27%.

As to `CCCCNC(=O)/C=C/c1ccc(Cl)cc1Cl` [N-BUTYL-3-(2,4-DICHLOROPHENYL)ACRYLAMIDE], the inhibition of growth at 100 ppm was found to be 17% in assay [1], 49% in assay [2], 9% in the assay on Pythium [3] and 16% in the assay on Athelia rolfsii [4].

In the case of `CCCCCCCCCCCCNC(=O)/C=C/c1ccccc1` [N-DODECYLCINNAMAMIDE], the inhibition of growth at 100 ppm in assay [1] came out at 48%; in assay [2], 32%; in the assay with Pythium [3] it was 21%; in the assay on Athelia rolfsii [4] it was 13%.

In the case of `CCCCCCCCCCCCCCCCNC(=O)/C=C/c1ccccc1` [N-HEXADECYLCINNAMAMIDE], the inhibition of growth at 100 ppm in assay [1] stood at 20%; in assay [2], 75%; in the assay on Pythium [3] it was 12%; in the assay with Athelia rolfsii [4], 0%.

As to `Cc1ccccc1NC(=O)/C=C/c1ccccc1` [N-O-TOLYLCINNAMAMIDE], the inhibition of growth at 100 ppm in assay [1] was 9%; in assay [2], 39%; in the assay with Pythium [3], 52%; with Athelia rolfsii [4], 49%. In addition, in the assay with Pythium [6], the inhibition of growth at 10 ppm was 18%.

For `CCCCCCCCNC(=O)/C=C/c1ccccc1` [N-OCTYLCINNAMAMIDE], the inhibition of growth at 100 ppm in assay [1] was found to be 34%; in assay [2], 42%; in the assay on Pythium [3] it was 24%; in the assay with Athelia rolfsii [4], 46%.

As for `Cc1ccc(NC(=O)/C=C/c2ccccc2)cc1` [N-P-TOLYLCINNAMAMIDE], the inhibition of growth at 100 ppm is 24% in assay [1], 57% in assay [2], 59% with Pythium [3] and 47% in the assay on Athelia rolfsii [4]. Besides, the inhibition of growth at 10 ppm with Pythium [6] came out at 35%.

Regarding `CCC(C)NC(=O)/C=C/c1ccc(Cl)cc1Cl` (stereo unspecified) [N-SEC-BUTYL-3-(2,4-DICHLOROPHENYL)ACRYLAMIDE], the inhibition of growth at 100 ppm is 21% in assay [1], 41% in assay [2], 23% with Pythium [3] and 31% in the assay with Athelia rolfsii [4].

For `CC(C)(C)NC(=O)/C=C/c1ccc(Cl)cc1Cl` [N-TERT-BUTYL-3-(2,4-DICHLOROPHENYL)ACRYLAMIDE], the inhibition of growth at 100 ppm in assay [1] worked out at 11%; in assay [2], 26%; in the assay on Pythium [3], 22%; with Athelia rolfsii [4] it was 21%.

Take `CC(C)(C)NC(=O)/C=C/c1ccc(Cl)cc1` [N-TERT-BUTYL-3-(4-CHLOROPHENYL)ACRYLAMIDE]: the inhibition of growth at 100 ppm in assay [1] was 29%; in assay [2], 55%; in the assay with Pythium [3], 21%; in the assay on Athelia rolfsii [4], 71%. Further, in the assay with Athelia rolfsii [5], the inhibition of growth at 10 ppm worked out at 60%.

Consider `CC(C)c1ccc(/C=C/C(=O)NC(C)(C)C)cc1` [N-TERT-BUTYL-3-(4-ISOPROPYLPHENYL)ACRYLAMIDE], for which the inhibition of growth at 100 ppm stood at 7% in assay [1], 43% in assay [2], 62% in the assay with Pythium [3] and 31% in the assay with Athelia rolfsii [4]. The inhibition of growth at 10 ppm in the assay with Pythium [6] came to 45%.

`CCCOC/C(=N\c1ccc(Cl)cc1C(F)(F)F)n1ccnc1` [TRIFLUMIZOLE]: the inhibition of growth at 100 ppm with Pythium [3] worked out at 94%; in the assay on Athelia rolfsii [4], 100%. In addition, the inhibition of growth at 10 ppm with Athelia rolfsii [5] is 64%; with Pythium [6], 71%.
